Experimental data taken from paper PMC12844237, “A Novel Quinolone JH62 (E-2-(Tridec-4-en-1-yl)-quinolin-4(1H)-one) from Pseudomonas aeruginosa Exhibits Potent Anticancer Activity” (Microorganisms, 2025).

Experiments:
LC3B in A549 cells = test: Immunofluorescence staining for LC3B; assay type: cell-based, human; conditions: A549, JH62 over 2–24 h
Source text: We next investigated whether autophagy contributes to JH62-induced cell death.

[1] = tested on: HCT116: human colon cancer cell lines; test: WST-1 cell viability, HCT116; assay type: cell-based; conditions: HCT-116, HCT116 (colon) cancer cell line
Source text: (§1) Different cells were utilized as follows: MEF: murine embryonic fibroblast (RRID: CVCL_L690); AML12: mouse liver cell lines (RRID: CVCL_0140); WI-38: human lung fibroblast cell lines (RRID: CVCL_0579); THLE-2: human liver epithelial cell lines (RRID: CVCL_3803); A549: human lung cancer cell lines (RRID: CVCL_0023); HEPG2: human liver cancer cell lines (RRID: CVCL_0027); HEP3B: human hepatoma cell lines (RRID: CVCL_0326); BxPC3: human pancreatic cancer cell lines (RRID: CVCL_0186); U87: human primary glioblastoma cell lines (RRID: CVCL_0022); DU145: human prostate cancer cell lines (RRID: CVCL_0105); MCF7: human breast cancer cell lines (RRID: CVCL_0031); HeLa: human cervical cancer cell lines (RRID: CVCL_0030); HCT116: human colon cancer cell lines (RRID: CVCL_0291). Cells were maintained in Dulbecco’s modified Eagle’s medium (DMEM, Gibco) supplemented with L-glutamine (Lonza) (2 mM), 10% fetal bovine serum (FBS, Hyclone), 1 × non-essential amino acids, and sodium pyruvate (1 mM). THLE-2 cells were maintained in THLE-2 Cell Complete Medium (Zhong Qiao Xin Zhou, Shanghai, China). Cells were incubated at 37 °C in a humidified incubator with 5% CO2. […]
(§2) Cell viability was assessed using the WST-1 assay, based on a previously reported method with slight modifications. […] Absorbance at OD450 was measured using a microplate reader (Synergy H1; BioTek Instruments, Winooski, VT, USA).

A549 cells = test: Chromosome staining experiment; assay type: cell-based, human; conditions: A549, 5 μM DOX or 25 μM JH62 for 6 h
Experimental: Metaphase chromosome spreads were prepared from A549 cells. Briefly, A549 cells were cultured. After treatment with JH62 or DOX, cells were incubated with Colcemid (Gibco BRL; 0.2 μg/mL final concentration) for 2 h to arrest cells in metaphase. Cells were then subjected to hypotonic treatment in KCl (0.075 M) at 37 °C for 5 min, and fixed by repeated washing with ice-cold freshly prepared 3:1 (vol/vol) methanol:acetic acid. Chromosome spreads were prepared on premarked glass slides using the “drop-cryo” protocol. The chromosome suspension was dropped onto a slide. This was followed by adding three drops of 45% acetic acid and placing a coverslip over the suspension. The slide was then inverted and placed on dry ice for 15 min. The spreads were postfixed in 2.5% glutaraldehyde in cacodylate buffer (pH 7.4, 75 mM) for 15 min and washed with cacodylate buffer (0.1 M). The chromosomes were stained with Vista Green DNA dye (Cell Biolabs, Singapore). After staining, the preparations were washed in water for 5, 10, and 15 min, then dehydrated using a series of ethanol solutions as follows: 5 min in a 70% solution, 10 min in an 85% solution, and 15 min in 100% ethanol. Finally, slides were mounted with a permanent mounting medium, sealed, and analyzed by microscopy.

[2] = tested on: A549 injected xenograft mouse model; test: Tumorigenicity assay, xenograft mouse model; assay type: in vivo, BALB/c nude mice
Experimental: Tumorigenicity assays were performed using BALB/c nude mice, adapted from previously described protocols with slight modifications. To establish the xenograft cancer model, cancer cells (1 × 10^6) were subcutaneously injected into the right dorsal side of 6-week-old male BALB/c nude mice to induce tumor formation. The mice were randomly divided into 2 groups (n = 15). One group served as the control, and the other groups were treated with JH62 at doses of 10 mg/kg, via intraperitoneal injection twice a week. The mice in the control group were administered an equal volume of DMSO as the solvent control. The tumor sizes were measured weekly for three weeks. After that, the mice were sacrificed, and the tumors were isolated and weighed. All animal studies were approved by the Ethics Committee of South China Agricultural University.
To evaluate the efficacy of JH62 in inhibiting tumorigenesis in vivo, a cancer xenograft model was established by transplanting cancer cells into the right flank of nude mice. The mice were treated with JH62 (10 mg/kg body weight) twice weekly for three weeks, and tumor volume changes were regularly monitored during this period. […] After 20 days of treatment, the average weight of solid tumors in the JH62-treated group was 186.3 mg, compared to 693.4 mg in the control group. The average tumor size in the control group was approximately 900 mm^3, while in the JH62-treated group, it was only about 190 mm^3 (Figure 2H,I).

[3] = tested on: BxPC3: human pancreatic cancer cell lines; test: WST-1 cell viability, BxPC3; assay type: cell-based; conditions: BXPC-3, BxPC3 (pancreatic) cancer cell line
Source text: as §1, §2

Which “LC3B puncta (autophagosome formation)” value (LC3B in A549 cells) does the source give for `CCCCCCCC/C=C/CCCc1cc(=O)c2ccccc2[nH]1` [JH62, E-2-(tridec-4-en-1-yl)-quinolin-4(1H)-one] here?
The value was “progressively increased both the intensity and number of LC3B puncta”.

And the IC50 [1]?
Its IC50 is 8.6 ± 0.1 µM.

What about the chromosome morphology (A549 cells) of the same molecule?
The chromosome morphology was “maintained normal morphology similar to the control”.

What about the “average weight of solid tumors” value ([2]; 10 mg/kg intraperitoneal twice weekly, after 20 days of treatment, control 693.4 mg) of the same molecule?
Its value is 186.3 mg.

What about the average tumor size ([2]; 10 mg/kg intraperitoneal twice weekly, three weeks, control approximately 900 mm^3) of the same molecule?
The average tumor size was “about 190 mm^3”.

What about the reduced tumor volume ([2]; xenograft mice, 10 mg/kg) of the same molecule?
Its reduced tumor volume is 79%.

And the reduced tumor weight ([2]; xenograft mice, 10 mg/kg)?
The reduced tumor weight was 73%.

And the IC50 [3]?
Its IC50 is 15 ± 0.4 µM.
